# Reference: ChEMBL document CHEMBL3244027, “Syntheses, analgetic activity, and physical dependence capacity of 5-phenyl-6,7-benzomorphan derivatives” (J Med Chem, 1979)
# Active and inactive are the calls of the source. The rule behind the calls is not given here.
# How the values were obtained:
# [1] = test system: Mus musculus; experiment: Analgetic activity in po dosed CF1S mouse assessed as writhing by phenylquinone writhing test; format: functional; conditions: Mus musculus, CF1S, po; read-out: ED50
# [2] = species on record: Mus musculus; experiment: Analgetic activity in nalorphine challenged mouse assessed as frequency pretreated for 2 day by mouse jumping test; format: functional, organism-based
# [3] = test system: Mus musculus; experiment: Analgetic activity against CF-1 mouse assessed as increase in reaction time at 60 mg/kg, po by heat stimulus induced tail flick response assay; format: functional, organism-based; parameters: dose 60 mg/kg
# [4] = test system: Mus musculus; experiment: Analgetic activity in sc dosed CF1S mouse assessed as writhing by phenylquinone writhing test; format: functional; conditions: Mus musculus, CF1S, sc; read-out: ED50
# [5] = test system: Mus musculus; experiment: Analgetic activity against CF-1 mouse assessed as increase in reaction time at 320 mg/kg, po by heat stimulus induced tail flick response assay; format: functional, organism-based; parameters: dose 320 mg/kg
# [6] = test system: Mus musculus; experiment: Analgetic activity against CF-1 mouse assessed as increase in reaction time at 30 mg/kg, sc by heat stimulus induced tail flick response assay; format: functional, organism-based; parameters: dose 30 mg/kg
# [7] = test system: Mus musculus; experiment: Analgetic activity against CF-1 mouse assessed as increase in reaction time at 2.5 mg/kg, sc by heat stimulus induced tail flick response assay; format: functional, organism-based; parameters: dose 2.5 mg/kg
# [8] = test system: Mus musculus; experiment: Analgetic activity against CF-1 mouse assessed as increase in reaction time at 60 mg/kg, sc by heat stimulus induced tail flick response assay; format: functional, organism-based; parameters: dose 60 mg/kg
# [9] = test system: Mus musculus; experiment: Analgetic activity against CF-1 mouse assessed as increase in reaction time at 100 mg/kg, sc by heat stimulus induced tail flick response assay; format: functional, organism-based; parameters: dose 100 mg/kg
# [10] = test system: Mus musculus; experiment: Analgetic activity against CF-1 mouse assessed as increase in reaction time at 100 mg/kg, po by heat stimulus induced tail flick response assay; format: functional, organism-based; parameters: dose 100 mg/kg
# [11] = test system: Mus musculus; experiment: Analgetic activity against CF-1 mouse assessed as increase in reaction time at 20 mg/kg, po by heat stimulus induced tail flick response assay; format: functional, organism-based; parameters: dose 20 mg/kg
# [12] = test system: Mus musculus; experiment: Analgetic activity against CF-1 mouse assessed as increase in reaction time at 80 mg/kg, sc by heat stimulus induced tail flick response assay; format: functional, organism-based; parameters: dose 80 mg/kg
# [13] = test system: Mus musculus; experiment: Analgetic activity against CF-1 mouse assessed as increase in reaction time at 40 mg/kg, sc by heat stimulus induced tail flick response assay; format: functional, organism-based; parameters: dose 40 mg/kg
# [14] = test system: Mus musculus; experiment: Analgetic activity against CF-1 mouse assessed as increase in reaction time at 40 mg/kg, po by heat stimulus induced tail flick response assay; format: functional, organism-based; parameters: dose 40 mg/kg
# [15] = test system: Mus musculus; experiment: Analgetic activity against CF-1 mouse assessed as increase in reaction time at 20 mg/kg, sc by heat stimulus induced tail flick response assay; format: functional, organism-based; parameters: dose 20 mg/kg
# [16] = test system: Mus musculus; experiment: Analgetic activity against CF-1 mouse assessed as increase in reaction time at 1.5 mg/kg, sc by heat stimulus induced tail flick response assay; format: functional, organism-based; parameters: dose 1.5 mg/kg
# [17] = test system: Mus musculus; experiment: Analgetic activity against CF-1 mouse assessed as increase in reaction time at 10 mg/kg, po by heat stimulus induced tail flick response assay; format: functional, organism-based; parameters: dose 10 mg/kg
# [18] = test system: Rhesus monkey; experiment: Analgetic activity in naloxone challenged monkey assessed as frequency pretreated for 2 day by mouse jumping test; format: functional, organism-based; conditions: Macaca mulatta
# [19] = test system: Mus musculus; experiment: Analgetic activity against CF-1 mouse assessed as increase in reaction time at 1.2 mg/kg, sc by heat stimulus induced tail flick response assay; format: functional, organism-based; parameters: dose 1.2 mg/kg
# [20] = test system: Mus musculus; experiment: Analgetic activity against CF-1 mouse assessed as increase in reaction time at 5 mg/kg, sc by heat stimulus induced tail flick response assay; format: functional, organism-based; parameters: dose 5 mg/kg
# [21] = test system: Mus musculus; experiment: Analgetic activity against CF-1 mouse assessed as increase in reaction time at 1.2 mg/kg, po by heat stimulus induced tail flick response assay; format: functional, organism-based; parameters: dose 1.2 mg/kg
# [22] = species on record: Mus musculus; experiment: Analgetic activity in naloxone challenged mouse assessed as frequency pretreated for 2 day by mouse jumping test; format: functional, organism-based
# [23] = test system: Mus musculus; experiment: Analgetic activity against CF-1 mouse assessed as increase in reaction time at 50 mg/kg, sc by heat stimulus induced tail flick response assay; format: functional, organism-based; parameters: dose 50 mg/kg
# [24] = test system: Mus musculus; experiment: Analgetic activity against CF-1 mouse assessed as increase in reaction time at 10 mg/kg, sc by heat stimulus induced tail flick response assay; format: functional, organism-based; parameters: dose 10 mg/kg
# [25] = test system: Mus musculus; experiment: Analgetic activity against CF-1 mouse assessed as increase in reaction time at 80 mg/kg, po by heat stimulus induced tail flick response assay; format: functional, organism-based; parameters: dose 80 mg/kg
# [26] = test system: Mus musculus; experiment: Analgetic activity against CF-1 mouse assessed as increase in reaction time at 16 mg/kg, po by heat stimulus induced tail flick response assay; format: functional, organism-based; parameters: dose 16 mg/kg
# [27] = test system: Mus musculus; experiment: Analgetic activity against CF-1 mouse assessed as increase in reaction time at 4 mg/kg, sc by heat stimulus induced tail flick response assay; format: functional, organism-based; parameters: dose 4 mg/kg
compound,measurement,setting,value
CC1C2Cc3ccc(OC(=O)c4ccccc4Cl)cc3C1(c1ccccc1)CCN2C (stereo unspecified),ED50,[1],49 mg/kg
same,Activity,[2],Active
CC1C2Cc3ccc(OC(=O)c4ccco4)cc3C1(c1ccccc1)CCN2C(=O)c1ccco1 (stereo unspecified),Activity,[3],inactive
O=C(Oc1ccc2c(c1)C1(c3ccccc3)CCN(C(=O)C3CC3)C(C2)C1)C1CC1 (racemic),Activity,[3],inactive
same,ED50,[4],> 100 mg/kg
COc1ccc2c(c1)C1(c3ccccc3)CCN(C)C(C2)C1 (stereo unspecified),Activity,[5],inactive
same,Activity,[6],inactive
CC1C2Cc3ccc(OC(=O)CCl)cc3C1(c1ccccc1)CCN2C (stereo unspecified),Activity,[7],Active
CN1CCC2(c3ccccc3)CC1Cc1ccc(O)cc12 (stereo in doubt; 43),Activity,[8],inactive
CC(=O)Oc1ccc2c(c1)C1(c3ccc(Cl)cc3)CCN(C)C(C2)C1 (racemic),ED50,[4],20 mg/kg
same,Activity,[9],Active
CC(O)C(=O)O.CC1C2Cc3ccc(O)cc3C1(c1ccccc1)CCN2CCCCc1ccccc1 (stereo unspecified),ED50,[1],> 100 mg/kg
same,Activity,[9],inactive
CC(=O)N1CCC2(c3ccccc3)CC1Cc1ccc(O)cc12 (racemic),ED50,[4],> 100 mg/kg
same,Activity,[10],inactive
CC1C2Cc3ccc(OC(=O)C4CCC4)cc3C1(c1ccccc1)CCN2C (stereo unspecified),Activity,[11],Active
same,Activity,[7],Active
COc1ccc2c(c1)C1(c3ccccc3)CCN(C)C(C2)C1C (stereo unspecified),Activity,[11],Active
same,Activity,[12],Active
same,Activity,[13],Active
CCC(=O)Oc1ccc2c(c1)C1(c3ccccc3)CCN(C)C(C2)C1C (stereo unspecified),Activity,[7],Active
CC1C2Cc3ccc(O)cc3C1(c1ccccc1)CCN2CCc1ccccc1 (racemic),Activity,[14],Active
same,Activity,[15],Active
CCCCC(=O)Oc1ccc2c(c1)C1(c3ccccc3)CCN(C)C(C2)C1C (stereo unspecified),Activity,[16],Active
same,Activity,[17],Active
Oc1ccc2c(c1)C1(c3ccccc3)CCN(CC3CC3)C(C2)C1 (racemic),Activity,[18],inactive
Oc1ccc2c(c1)C1(c3ccccc3)CCN(CC3CCC3)C(C2)C1 (racemic),Activity,[18],inactive
CC1C2Cc3ccc(O)cc3C1(c1ccccc1)CCN2CCc1ccc(N)cc1 (stereo unspecified),Activity,[19],Active
same,Activity,[17],Active
CC1C2Cc3ccc(OC(=O)c4ccc(Br)cc4)cc3C1(c1ccccc1)CCN2C (stereo unspecified),Activity,[20],Active
same,Activity,[21],Active
COc1ccc(CC2C=C(c3ccc(Cl)cc3)CCN2C)cc1 (stereo unspecified),Activity,[14],Active
same,Activity,[22],inactive
CC1C2Cc3ccc(O)cc3C1(c1ccc(F)cc1)CCN2C (racemic),Activity,[17],Active
same,Activity,[7],Active
CC1C2Cc3ccc(O)cc3C1(c1ccccc1)CCN2CCCC(=O)c1ccc(F)cc1.Cl.O (stereo unspecified),ED50,[4],> 100 mg/kg
same,Activity,[22],inactive
same,Activity,[23],inactive
CC1C2Cc3ccc(O)cc3C1(c1ccccc1)CCN2CCc1ccccc1 (stereo unspecified),Activity,[24],Active
same,Activity,[25],Active
CC1C2Cc3ccc(OC(=O)c4cccc([N+](=O)[O-])c4)cc3C1(c1ccccc1)CCN2C (stereo unspecified),Activity,[19],Active
same,Activity,[2],Active
CN1CC[C@]23c4c5ccc(O)c4O[C@H]2[C@@H](O)C=C[C@H]3[C@H]1C5 [MORPHINE],ED50,[1],8.9 mg/kg
same,Activity,[26],Active
same,Activity,[22],Active
same,Activity,[27],Active
